Assay results published in patent US20030216569A1, “Method of making HIV protease inhibitors” (priority 1993, published 2003).
Values after ≈ are worked out from the molar mass of the structure shown.

Tests used:
[1] = test system: HIV-1 isolates IIIB and/or RF in CEM cells; assay: SRI primary anti-HIV screen, MTT assay of inhibition of HIV-induced cell killing in CEM cells; assay type: cell-based; conditions: for SRI CEM IC50: CEM cells; for IC50: Human immunodeficiency virus 1, IIIB, CCRF-CEM, read-out: SRI CEM IC50 ng/mL, CEM cells
Method: (§1) A. Principle of MTT Assay:
This assay involves the conversion of the tetrazolium dye MTT to a colored formazan product by mitochondrial enzymes in metabolically active cells. This assay system is used at SRI to screen over 30,000 compounds per year. Briefly, the assay involves the infection of CEM or MT2 cells in round bottom 96-well plates. The compound of interest is added just prior to infection. Following 6 days of incubation at 37° C. the plates are stained with MTT. The results of the assay are quantitated spectrophotometrically on a Molecular Devices Vmax plate reader. The data are analyzed by linear regression utilizing an in-house software program to calculate antiviral activity (IC25, IC50, IC95) and toxicity (TC25, TC50, TC95) as well as other values.
(§2) Primary antiviral assays are routinely performed in CEM or MT-2 cells.
(§3) B. Standard Screening Assays in CEM and MT-2 Cells
(§4) 1. Compound dilution and delivery to the plates
(§5) Drugs are solubilized in the appropriate vehicle such as distilled water or DMSO if necessary. Latex gloves, lab coats and masks are used during all phases of the handling process to prevent exposure to potentially harmful agents. The drug is prepared at the appropriate concentration and stored at −20° C. until used by the screening laboratory. The first dilution of each compound is made in a dilution tube with medium to yield a concentration two-fold that of the highest test concentration. Sterile titer tubes are then used to make serial one half-log dilutions of each compound. Following drug dilution, the diluted compound is added to the appropriate well of a 96-well microtiter plate. Up to 12 dilutions can be assayed conveniently in triplicate on a single plate with all appropriate controls including cell control, virus control, toxicity control, drug color control, medium control and plastic (background) control. When testing includes only six dilutions, two drugs can be assayed on a single microtiter plate. The drugs are added to the plate in a final volume of 100 microliters.
(§6) During the time the drug dilutions are prepared, cells are washed and counted. Viability is monitored by trypan blue dye exclusion and assays are not performed if the viability falls below 90%. Cells are maintained in an exponential growth phase and are split 1:2 on the day prior to assay to assure exponential growth rate.
(§7) For the primary screen, the cell lines utilized are CEM and MT-2. Unless otherwise indicated, the medium used is RPMI 1640 with 10% heat-inactivated fetal calf serum (FBS), glutamine and antibiotics.
(§8) Cells are propagated at 37° C. in an atmosphere of 5% CO2 in air. The virus employed for this work is HIV-1 isolates IIIB and/or RF, which are prepared by an acute infection process.
(§9) Briefly, virus-infected cells are pelleted on a daily basis beginning at three days post-infection until the virus has killed all of the cells in the culture. Reverse transcriptase activity and p24 ELISA are used to identify pools with the greatest amout of virus.
(§10) These 24-hour harvests are pooled, filtered and frozen at −90° C. Prior to use in the assay, the infectious pool of virus is titered on all available cell lines in order to determine the amount of virus required in the antiviral assay.
(§11) In general, pools produced by the acute infection method require the addition of one microliter of infectious virus per well resulting in the screening of drugs at a multiplicity of infection of 0.01. In this manner, enough virus is prepared and frozen to complete over one thousand microtiter plates, allowing the testing of up to two thousand compounds from a single stock of infectious virus.
Virus infection of the CEM and MT-2 cells for the antiviral assay is carried out in a bulk infection process.

[2] = test system: HIV-1 isolates IIIB and/or RF in MT-2 cells; assay: SRI primary anti-HIV screen, MTT assay of inhibition of HIV-induced cell killing in MT2 cells; assay type: cell-based; conditions: for IC50: Human immunodeficiency virus 1, IIIB, MT2, read-out: SRI MT2 IC50 ng/ml, MT2 cells; for SRI MT2 IC50: MT2 cells
Excerpt: I. Primary Drug Screening of Anti-HIV Compounds at Southern Research Institute (SRI) (Results recorded in Table 1 are designated “SRI CEM (ng/ml)” or “SRI MT2 (ng/ml)”)
as §1
SRI has an established program for the primary antiviral analysis of compounds in microtiter assays which measures the ability of a selected compound to inhibit HIV-induced cell killing. This assay involves the conversion of the tetrazolium dye MTT to a colored formazan product by mitochondrial enzymes in metabolically active cells. This assay system is used at SRI to screen over 30,000 compounds per year. Briefly, the assay involves the infection of CEM or MT2 cells in round bottom 96-well plates. The compound of interest is added just prior to infection. Following 6 days of incubation at 37° C. the plates are stained with MTT. The results of the assay are quantitated spectrophotometrically on a Molecular Devices Vmax plate reader. The data are analyzed by linear regression utilizing an in-house software program to calculate antiviral activity (IC25, IC50, IC95) and toxicity (TC25, TC50, TC95) as well as other values.
as §2, §3, §4
as §5, with “Up to 12 dilutions can be assayed conveniently in triplicate on a single plate with all appropriate controls including cell control, virus control, toxicity control, drug color control, medium control and plastic (background) control.” left out
as §6, §7, §8, §9, §10
as §11, with “virus. The use of a single stock of virus for a long period of testing has very favorable effects on the repeatability of the assay systems. […]” for “virus.”

Row | Compound | SRI CEM IC50 [1] [µg/mL] | IC50 [1] [ng/mL] | IC50 [2] [ng/mL] | SRI MT2 IC50 [2] [µg/mL]
1 | CC(C)(C)NC(=O)C1CC2CCCCC2CN1CC(O)C(Cc1ccccc1)NC(=O)c1ccc[n+]([O-])c1 (stereo not drawn) [Example 5, [3S-(3R*,4aR*,8aR*,2′S*,3′R*)]-2-[2′-Hydroxy-3′-phenylmethyl-4′-aza-5′-oxo-5′-(pyrid-3″yl-N-oxidyl)pentyl] decahydroisoquinoline-3-N-t-butylcarboxamide] | 4.43 | 4970 (≈ 9.51 µM) | 7800 (≈ 14.9 µM) | 5.03
2 | CC(C)(C)NC(=O)C1CC2CCCCC2CN1CC(O)C(Cc1ccccc1)NC(=O)c1cccc(O)c1Cl (stereo not drawn) [Example 11, [3S-(3R*,4aR*,8aR*,2′S*,3′R*)]-2-[2′-Hydroxy-3′-phenylmethyl-4′-aza-5′-oxo-5′-(2″-chloro-3″-hydroxyphenyl)pentyl] decahydroisoquinoline-3-N-t-butylcarboxamide] | 0.338 | 420 (≈ 0.755 µM) | 649 (≈ 1.17 µM) | 0.387
3 | Cc1c(O)cccc1C(=O)NC(Cc1ccccc1)C(O)CN1CC2CCCCC2CC1C(=O)NC(C)(C)C (stereo not drawn) [Example 23, [3S-(3R*,4aR*,8aR*,2′S*,3′R*)]-2-[2′-Hydroxy-3′-phenylmethyl-4′-aza-5′-oxo-5′-(2″-methyl-3″-hydroxyphenyl)pentyl] decahydroisoquinoline-3-N-t-butylcarboxamide] | 0.00862 |  |  | 0.00627
